The results in this text go back to patent publication US10669270B2, “Amide-sulfamide derivatives, compositions, and uses related to CXCR4 inhibition” (Emory University, priority 2016, dated 2020).

In one data set the target is T1, CXCR4 (Homo sapiens, UniProt P61073).
T1 construct: endogenous in cells; host or cells: MDA-MB-231
Put plainly: Primary binding affinity screening (competition with biotinylated TN14003 on MDA-MB-231 cells). To be noted: for potency compared with AMD3100: EC relative to AMD3100; for EC: MDA-MB-231 cells, compounds at 1, 10, 100, or 1000 nM, biotinylated TN14003. As to the method: For binding affinity assay, 2×10^4 MDA-MB-231 cells in 300 μL of cell culture medium were seeded in an 8-well slide chamber 2 days before the experiments were conducted. Various concentrations of different compounds (1, 10, 100, or 1000 nM) were added to the separate wells and incubated for 10 minutes at room temperature, and then the cells were fixed in 4% ice-cold paraformaldehyde. The cells were rehydrated in phosphate-buffered saline (PBS). The slides were subsequently incubated for 30 minutes at room temperature with 0.05 μg/mL biotinylated TN14003, washed three times with PBS, and incubated in streptavidin-rhodamine (1:150 dilution; Jackson ImmunoResearch Laboratories, West Grove, Pa.) for 30 minutes at room temperature. Finally, the slides were washed with PBS and mounted in an anti-fade mounting solution (Molecular Probes, Eugene, Oreg.), and the samples were analyzed on a Nikon Eclipse E800 microscope.

Another data set concerns MDA-MB-231 cells. Put plainly: Matrigel invasion assay. The data set is classed as cell-based. To be noted: compounds 100 nM; CXCL12α 200 ng/mL; 22 hours. As to the method:
Matrigel invasion assay was performed by using a Matrigel invasion chamber from Corning Biocoat (Bedford, Mass.). CXCL12α(200 ng/mL; R & D Systems, Minneapolis, Minn.) was added to the bottom chamber to induce the invasion of MDA-MB-231 cells through the Matrigel. The selected compounds (100 nM) or AMD3100 were added to the cells before the cells were seeded in the top chamber. The Matrigel invasion chamber was incubated for 22 hours in a humidified cell culture incubator. First, non-invading cells were removed from the top of the Matrigel with a cotton-tipped swab. Invading cells on the filter at the bottom of the Matrigel were fixed in methanol and stained with hematoxylin and eosin (H & E). The percent of invasion was determined by counting the H&E stained cellc.

In the next data set the test system is xylene-induced ear edema. In words: Xylene-induced ear inflammation suppression test. The data set is classed as in vivo, mice. Conditions: for inflammation suppression (mouse ear edema): 10 mg/kg i.p., 30 minutes after xylene, sacrificed 2 hours later. As to the method:
Five mice per group were used to determine the effect of the CXCR4 modulators. The inner and outer surfaces of the right ear of each mouse were treated with a total 30 μL of xylene for the induction of ear edema, whereas the left ear was treated with 30 μL of saline, which was used as a non-inflammation control. The selected compounds were dissolved in 10% DMSO and 90% of 45% (2-hydroxypropyl)-β-cyclodextrin (CD) in PBS. Thirty minutes after the application of xylene, 14 selected compounds were administered intraperitoneally (i.p.) at 10 mg/kg. Control animals received corresponding i.p. injections of the vehicle. The animals were sacrificed 2 hours later, and two ear plugs (7 mm in diameter) were removed from both the treated ear and the untreated ear. Weights of treated and untreated ear plugs were measured. The difference in weight of the two ear plugs was taken as a measure of edematous response. The inflammation-suppression percentage was calculated by comparing the drug-treated group to the control group.

T1 sequence (P61073 whole entry): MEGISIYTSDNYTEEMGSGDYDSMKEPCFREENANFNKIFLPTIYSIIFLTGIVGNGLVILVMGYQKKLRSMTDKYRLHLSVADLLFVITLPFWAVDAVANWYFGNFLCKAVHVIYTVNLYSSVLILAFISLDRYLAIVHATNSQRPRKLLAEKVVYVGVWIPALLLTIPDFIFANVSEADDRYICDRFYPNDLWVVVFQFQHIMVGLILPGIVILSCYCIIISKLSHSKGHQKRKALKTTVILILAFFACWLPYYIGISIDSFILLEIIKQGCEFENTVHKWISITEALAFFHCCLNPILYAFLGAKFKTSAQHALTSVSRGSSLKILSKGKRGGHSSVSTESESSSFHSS

Regarding `COc1ccccc1C(=O)NCc1ccc(CNS(=O)(=O)c2ccccc2)cc1` [IIIe, 2-Methoxy-N-(4-(phenylsulfonamidomethyl)benzyl)benzamide], the melting point was 123 to 125 °C. For the same molecule, on CXCR4, the “potency compared with AMD3100” value was 1000 fold and the EC was determined as 1 nM.
Regarding `Cc1nnsc1C(=O)NCc1ccc(CNS(=O)(=O)c2ccc(F)c(F)c2)cc1` [Im, N-(4-((3,4-difluorophenylsulfonamido)methyl)benzyl)-4-methyl-1,2,3-thiadiazole-5-carboxamide], in the data set on MDA-MB-231 cells, the “Matrigel invasion inhibition compared with AMD3100” value is “comparable inhibition to the reference drug AMD3100”. The “inflammation suppression (mouse ear edema)” value in the data set with xylene-induced ear edema came out at 54%. The “histological analysis of ear” value with xylene-induced ear edema (ear damage, edema, inflammatory cells) is “significantly attenuated the ear damage and decreased the number of inflammatory cells”.
For `Cc1ccccc1C(=O)NCc1ccc(CNS(=O)(=O)c2ccccc2)cc1` [IIIb, 2-Methyl-N-(4-(phenylsulfonamidomethyl)benzyl)benzamide], the melting point lay within 129 to 131 °C. Further, on CXCR4, the “potency compared with AMD3100” value stood at 1000 fold and the EC is 1 nM.
Take `O=C(NCc1ccc(CNS(=O)(=O)c2ccc3c(c2)CCO3)cc1)c1cccnc1` [Ia, N-(4-((2,3-dihydrobenzofuran-5-sulfonamido)methyl)benzyl)nicotinamide]: the melting point was in the range of 137 to 139 °C. Also, the “Matrigel invasion inhibition compared with AMD3100” value in the data set on MDA-MB-231 cells is “better activity than AMD3100”.
For the molecule `Cc1ccc(S(=O)(=O)NCc2ccc(CNC(=O)c3ccncc3)cc2)cc1` [IIr, N-(4-((4-methylphenylsulfonamido)methyl)benzyl)isonicotinamide], the melting point was in the range of 163 to 165 °C.
On the same count and under the same terms, to `Cc1ccc(S(=O)(=O)NCc2ccc(CNC(=O)c3ccccc3F)cc2)cc1` [IIh, 2-Fluoro-N-(4-((4-methylphenylsulfonamido)methyl)benzyl)benzamide] belongs 138 to 140 °C.
In the case of `O=C(NCc1ccc(CNS(=O)(=O)c2ccccc2)cc1)c1cccnc1` [IIIq, N-(4-(phenylsulfonamidomethyl)benzyl)nicotinamide], the melting point fell in the range of 109 to 111 °C.
As to `O=C(NCc1ccc(CNS(=O)(=O)c2ccccc2)cc1)c1ccc(CNc2ncccn2)cc1` [N-(4-(phenylsulfonamidomethyl)benzyl)-4-((pyrimidin-2-ylamino)methyl)benzamide], on CXCR4, the EC is listed as 1 nM.
Regarding `O=C(NCc1ccc(CNS(=O)(=O)c2ccccc2)cc1)c1ccccc1` [IIIa, N-(4-(phenylsulfonamidomethyl)benzyl)benzamide], the melting point lay in the range of 139 to 141 °C. Further, at CXCR4, the “potency compared with AMD3100” value is 1000 fold and the EC was found to be 1 nM. The “inflammation suppression (mouse ear edema)” value in the data set on xylene-induced ear edema was 62%.
`Cc1ccc(C(=O)NCc2ccc(CNS(=O)(=O)c3ccc(C)cc3)cc2)cc1` [IId, 4-Methyl-N-(4-((4-methylphenylsulfonamido)methyl)benzyl)benzamide] came in with a melting point of 180 to 182 °C.
In the case of `O=C(NCc1ccc(CNS(=O)(=O)c2ccccc2)cc1)c1ccccc1Cl` [IIIk, 2-Chloro-N-(4-(phenylsulfonamidomethyl)benzyl)benzamide], the melting point was 116 to 118 °C.
The molecule `Cc1ccc(S(=O)(=O)NCc2ccc(CNC(=O)c3ccc([N+](=O)[O-])cc3)cc2)cc1` [IIo, N-(4-((4-methylphenylsulfonamido)methyl)benzyl)-4-nitrobenzamide] returned a melting point of 207 to 209 °C.
Consider “Fluoro-N-(4-(phenylsulfonamidomethyl)benzyl)benzamide [IIIi]”, for which, on CXCR4, the “potency compared with AMD3100” value is recorded as 1000 fold and the EC came out at 1 nM.
`COc1cccc(C(=O)NCc2ccc(CNS(=O)(=O)c3ccc(C)cc3)cc2)c1` [IIf, 3-Methoxy-N-(4-((4-methylphenylsulfonamido)methyl)benzyl)benzamide] returned a melting point of 130 to 132 °C.
On the same count and under the same terms, the figure for `Cn1nccc1C(=O)NCc1ccc(CNS(=O)(=O)c2ccc3c(c2)CCO3)cc1` [Ic, N-(4-((2,3-dihydrobenzofuran-5-sulfonamido)methyl)benzyl)-1-methyl-1H-pyrazole-5-carboxamide] is 143 to 145 °C; for `Cc1ccc(S(=O)(=O)NCc2ccc(CNC(=O)c3ccccc3C)cc2)cc1` [IIb, 2-Methyl-N-(4-((4-methylphenylsulfonamido)methyl)benzyl)benzamide] it is 147 to 149 °C; for `O=C(NCc1ccc(CNS(=O)(=O)c2ccccc2)cc1)c1cccc(Cl)c1` [IIIm, 3-Chloro-N-(4-(phenylsulfonamidomethyl)benzyl)benzamide] it is 114 to 116 °C.
The same measure, in the same setting: to `Cc1ccc(S(=O)(=O)NCc2ccc(CNC(=O)c3cccc(C)c3)cc2)cc1` [IIc, 3-Methyl-N-(4-((4-methylphenylsulfonamido)methyl)benzyl)benzamide] belongs 123 to 125 °C.
`O=C(NCc1ccc(CNS(=O)(=O)c2ccccc2)cc1)c1ccc([N+](=O)[O-])cc1` [IIIo, 4-Nitro-N-(4-(phenylsulfonamidomethyl)benzyl)benzamide]: the melting point is 201 to 203 °C.
Same read-out and setting: to `Cc1ccc(S(=O)(=O)NCc2ccc(CNC(=O)c3ccccc3)cc2)cc1` [IIa, N-(4-((4-methylphenylsulfonamido)methyl)benzyl)benzamide] belongs 162 to 164 °C.
The molecule `Cc1cc(C(=O)NCc2ccc(CNS(=O)(=O)c3ccc4c(c3)CCO4)cc2)n(C)n1` [If, N-(4-((2,3-dihydrobenzofuran-5-sulfonamido)methyl)benzyl)-1,3-dimethyl-1H-pyrazole-5-carboxamide] came in with a melting point of 176 to 178 °C. Moreover, the “Matrigel invasion inhibition compared with AMD3100” value in the data set on MDA-MB-231 cells is “comparable inhibition to the reference drug AMD3100”.
`Cc1ccc(S(=O)(=O)NCc2ccc(CNC(=O)c3cccc(Cl)c3)cc2)cc1` [IIm, 3-Chloro-N-(4-((4-methylphenylsulfonamido)methyl)benzyl)benzamide] came in with a melting point of 110 to 112 °C.
Regarding `O=C(NCc1ccc(CNS(=O)(=O)c2ccc3c(c2)CCO3)cc1)c1scc2c1OCCO2` [Ik], the “Matrigel invasion inhibition compared with AMD3100” value with MDA-MB-231 cells is on record as “better activity than AMD3100”.
`Cc1ccc(S(=O)(=O)NCc2ccc(CNC(=O)c3ccc(Cl)cc3)cc2)cc1` [IIn, 4-Chloro-N-(4-((4-methylphenylsulfonamido)methyl)benzyl)benzamide] gave a melting point of 201 to 203 °C.
On to `O=C(NCc1ccc(CNS(=O)(=O)c2ccccc2)cc1)c1ccc(F)cc1` [IIIj, 4-Fluoro-N-(4-(phenylsulfonamidomethyl)benzyl)benzamide], for which, on CXCR4, the “potency compared with AMD3100” value was 1000 fold and the EC is 1 nM.
Consider `Cc1ccc(S(=O)(=O)NCc2ccc(CNC(=O)c3ccccc3Cl)cc2)cc1` [IIk, 2-Chloro-N-(4-((4-methylphenylsulfonamido)methyl)benzyl)benzamide], for which the melting point was in the range of 140 to 142 °C.
Same read-out and setting: the figure for `O=C(NCc1ccc(CNS(=O)(=O)c2cccc(F)c2)cc1)c1cc2ccccn2n1` [Ih, N-(4-((3-fluorophenylsulfonamido)methyl)benzyl)pyrazolo[1,5-a]pyridine-2-carboxamide] is 163 to 165 °C.
Molecule `Cc1cccc(C(=O)NCc2ccc(CNS(=O)(=O)c3ccccc3)cc2)c1` [IIIc, 3-Methyl-N-(4-(phenylsulfonamidomethyl)benzyl)benzamide] returned a melting point of 112 to 114 °C.

One may read the melting point as the temperature, or range, at which the solid turns liquid.
